Earlier results as cited in patent publication US4672107A, “Cell growth inhibitor and method” (Inbex, Inc., priority 1985, dated 1987).

Tested on: human embryonic palatal mesenchymal cells
Details: Yoneda and Pratt, Science 1981

Epidermal Growth Factor (NSDSECPLSHDGYCLHDGVCMYIEALDKYACNCVVGYIGERCQYRDLKWWELR; Epidermal growth factor; UniProt P01133 971-1023, looked up) [Epidermal Growth Factor (EGF)]
stimulation of incorporation of 3[H]-thymidine into newly synthesized DNA: a little more than twofold
